Columns and labels:
[1] = target: Calcium/calmodulin-dependent protein kinase type II subunit delta (Homo sapiens) (UniProt Q13557); assay: Selectivity interaction (Kinase panel (KiNativ target engagement assay in Jurkat cells)) EUB0001635a CAMK2D; assay type: cell-based; conditions: Selectivity number of off-targets 0.0, Selectivity number of targets 233.0, Source Knowledge https://www.sciencedirect.com/science/article/pii/S2451945619300674?via%3Dihub, at 1 µM
[2] = test system: Proto-oncogene tyrosine-protein kinase receptor Ret (Homo sapiens), P07949 [V804M]; assay: (§1) Selectivity interaction (KinomeScan (DiscoverX)) EUB0000045b RET
[3] = target: Proto-oncogene tyrosine-protein kinase receptor Ret (Homo sapiens, UniProt P07949); assay: as §1
[4] = test system: Proto-oncogene tyrosine-protein kinase receptor Ret (Homo sapiens), P07949 [M918T]; assay: as §1
Proto-oncogene tyrosine-protein kinase receptor Ret (Homo sapiens), P07949 [M918T], sequence (P07949 whole entry M918T): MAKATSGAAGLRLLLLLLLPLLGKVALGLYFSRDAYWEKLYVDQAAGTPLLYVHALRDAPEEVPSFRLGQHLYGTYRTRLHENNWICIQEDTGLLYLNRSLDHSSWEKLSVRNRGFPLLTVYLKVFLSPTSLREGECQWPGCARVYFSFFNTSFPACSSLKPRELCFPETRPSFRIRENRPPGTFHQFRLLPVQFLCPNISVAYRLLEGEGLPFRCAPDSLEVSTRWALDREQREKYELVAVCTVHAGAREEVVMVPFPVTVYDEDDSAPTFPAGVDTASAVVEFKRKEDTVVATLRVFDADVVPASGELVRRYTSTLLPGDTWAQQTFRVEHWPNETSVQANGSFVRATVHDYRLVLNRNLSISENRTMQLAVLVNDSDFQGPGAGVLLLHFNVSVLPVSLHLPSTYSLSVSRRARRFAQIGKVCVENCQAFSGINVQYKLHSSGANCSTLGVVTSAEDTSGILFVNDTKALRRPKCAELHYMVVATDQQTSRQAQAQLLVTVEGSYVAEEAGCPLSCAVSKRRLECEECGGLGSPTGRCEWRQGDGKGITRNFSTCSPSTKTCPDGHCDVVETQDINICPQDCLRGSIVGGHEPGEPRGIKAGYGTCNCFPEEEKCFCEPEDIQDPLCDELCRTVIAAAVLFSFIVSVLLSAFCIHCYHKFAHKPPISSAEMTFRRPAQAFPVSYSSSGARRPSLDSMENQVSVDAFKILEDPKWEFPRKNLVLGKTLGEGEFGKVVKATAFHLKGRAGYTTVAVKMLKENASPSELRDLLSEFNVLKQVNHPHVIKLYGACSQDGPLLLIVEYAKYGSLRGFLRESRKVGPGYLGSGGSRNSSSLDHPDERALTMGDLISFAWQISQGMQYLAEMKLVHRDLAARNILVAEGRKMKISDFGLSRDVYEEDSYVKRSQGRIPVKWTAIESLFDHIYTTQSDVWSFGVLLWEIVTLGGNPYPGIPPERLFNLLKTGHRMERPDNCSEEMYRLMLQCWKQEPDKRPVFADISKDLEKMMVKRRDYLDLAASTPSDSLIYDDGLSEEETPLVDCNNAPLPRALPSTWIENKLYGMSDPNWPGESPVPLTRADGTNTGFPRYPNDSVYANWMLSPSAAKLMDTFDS

[5] = test system: Proto-oncogene tyrosine-protein kinase receptor Ret (Homo sapiens), P07949 [V804L]; assay: as §1
Proto-oncogene tyrosine-protein kinase receptor Ret (Homo sapiens), P07949 [V804L], sequence (P07949 whole entry V804L): as the sequence (P07949 whole entry M918T) above, with V804L, T918M counted along it

[6] = target: Phosphatidylinositol 3-kinase catalytic subunit type 3 (Homo sapiens, UniProt Q8NEB9); assay: Selectivity interaction (Adapta Assay) EUB0001632a PIK3C3; conditions: at 10 µM
[7] = target: Vascular endothelial growth factor receptor 1 (Homo sapiens) (UniProt P17948); assay: Selectivity interaction (Kinase panel (Z-LYTE Assay)) EUB0001632a FLT1; conditions: at 10 µM
[8] = test system: Mast/stem cell growth factor receptor Kit (Homo sapiens), P10721 [D816V]; assay: (§2) Selectivity interaction (KinomeScan (DiscoverX)) EUB0000666a KIT; conditions: at 10 µM
[9] = test system: Mast/stem cell growth factor receptor Kit (Homo sapiens), P10721 [V559D]; assay: as §2; conditions: at 10 µM
[10] = test system: Mast/stem cell growth factor receptor Kit (Homo sapiens), P10721 [D816H]; assay: as §2; conditions: at 10 µM
[11] = test system: Mast/stem cell growth factor receptor Kit (Homo sapiens), P10721 [L576P]; assay: as §2; conditions: at 10 µM
[12] = test system: Mast/stem cell growth factor receptor Kit (Homo sapiens), P10721 [V559D,T670I]; assay: as §2; conditions: at 10 µM
[13] = target: Mast/stem cell growth factor receptor Kit (Homo sapiens, UniProt P10721); assay: as §2; conditions: at 10 µM
[14] = test system: Mast/stem cell growth factor receptor Kit (Homo sapiens), P10721 [V559D,V654A]; assay: as §2; conditions: at 10 µM
[15] = target: Tyrosine-protein kinase Blk (Homo sapiens) (UniProt P51451); conditions: at 10 µM
[16] = target: [Pyruvate dehydrogenase (acetyl-transferring)] kinase isozyme 1, mitochondrial (Homo sapiens, UniProt Q15118); assay: Selectivity interaction (Kinase screening (Upstate/Millipore)) EUB0000604a PDK1
[17] = target: Non-receptor tyrosine-protein kinase TYK2 (Homo sapiens, UniProt P29597); assay: Selectivity interaction (KinomeScan (DiscoverX)) EUB0001049a TYK2; conditions: at 1 µM
[18] = target: Insulin receptor (Homo sapiens, UniProt P06213); assay: Selectivity interaction (KinomeScan (DiscoverX)) EUB0001619a INSR; conditions: at 1 µM
[19] = target: Tyrosine-protein kinase Lck (Homo sapiens, UniProt P06239); assay: Selectivity interaction (KinomeScan (DiscoverX)) EUB0001619a LCK; conditions: at 1 µM
[20] = target: BMP-2-inducible protein kinase (Homo sapiens) (UniProt Q9NSY1); assay: Selectivity interaction (Kinase panel (DSF assay)) EUB0001558a BMP2K
[21] = target: Receptor tyrosine-protein kinase erbB-2 (Homo sapiens, UniProt P04626); assay: Selectivity interaction (KinomeScan (DiscoverX)) EUB0000618a ERBB2; conditions: at 10 µM
[22] = target: Wee1-like protein kinase (Homo sapiens) (UniProt P30291); assay: Selectivity interaction (ActivX KiNativ screen (kinase selectivity in THP-1 cell lysates)) EUB0000639a WEE1; assay type: subcellular; conditions: lysate
Wee1-like protein kinase (Homo sapiens), sequence (P30291 whole entry, looked up): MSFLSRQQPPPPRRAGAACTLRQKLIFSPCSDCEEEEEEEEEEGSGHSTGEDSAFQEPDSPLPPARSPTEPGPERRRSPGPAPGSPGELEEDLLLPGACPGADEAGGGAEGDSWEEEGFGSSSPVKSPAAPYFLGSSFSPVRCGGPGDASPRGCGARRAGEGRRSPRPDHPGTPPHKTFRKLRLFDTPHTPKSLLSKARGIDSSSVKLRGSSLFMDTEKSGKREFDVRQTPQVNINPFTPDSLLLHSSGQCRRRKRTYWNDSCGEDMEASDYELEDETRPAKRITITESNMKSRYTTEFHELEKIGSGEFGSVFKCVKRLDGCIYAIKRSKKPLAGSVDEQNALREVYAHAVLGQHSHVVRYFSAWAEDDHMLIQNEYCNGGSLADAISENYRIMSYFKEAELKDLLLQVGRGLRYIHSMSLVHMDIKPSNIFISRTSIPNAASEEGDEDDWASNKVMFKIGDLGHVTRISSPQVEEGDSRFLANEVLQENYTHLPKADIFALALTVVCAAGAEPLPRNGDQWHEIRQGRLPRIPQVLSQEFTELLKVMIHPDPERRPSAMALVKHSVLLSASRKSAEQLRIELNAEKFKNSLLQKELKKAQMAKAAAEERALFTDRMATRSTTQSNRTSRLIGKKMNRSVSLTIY

[23] = target: T1, Phosphatidylinositol 5-phosphate 4-kinase type-2 gamma (Homo sapiens) (UniProt Q8TBX8); assay: Selectivity interaction (ActivX KiNativ screen (kinase selectivity in THP-1 cell lysates)) EUB0000639a PIP4K2C; assay type: subcellular; conditions: lysate, at 0.01 µM
T1 sequence (whole entry): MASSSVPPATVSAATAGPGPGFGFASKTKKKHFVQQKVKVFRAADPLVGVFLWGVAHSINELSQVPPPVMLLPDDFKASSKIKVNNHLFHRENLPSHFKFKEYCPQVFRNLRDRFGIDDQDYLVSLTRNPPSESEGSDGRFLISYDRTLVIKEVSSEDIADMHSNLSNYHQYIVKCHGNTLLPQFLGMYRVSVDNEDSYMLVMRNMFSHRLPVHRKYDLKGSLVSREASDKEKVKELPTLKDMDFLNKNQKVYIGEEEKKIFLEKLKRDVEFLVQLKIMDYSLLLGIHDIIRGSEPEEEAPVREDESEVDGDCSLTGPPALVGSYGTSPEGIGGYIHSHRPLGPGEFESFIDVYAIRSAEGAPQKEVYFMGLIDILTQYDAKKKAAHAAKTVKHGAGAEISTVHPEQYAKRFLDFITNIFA

[24] = target: Phosphatidylinositol 4-kinase alpha (Homo sapiens, UniProt P42356); assay: Selectivity interaction (ActivX KiNativ screen (kinase selectivity in THP-1 cell lysates)) EUB0000639a PI4KA; assay type: subcellular; conditions: lysate
Phosphatidylinositol 4-kinase alpha, sequence (P42356 whole entry, looked up): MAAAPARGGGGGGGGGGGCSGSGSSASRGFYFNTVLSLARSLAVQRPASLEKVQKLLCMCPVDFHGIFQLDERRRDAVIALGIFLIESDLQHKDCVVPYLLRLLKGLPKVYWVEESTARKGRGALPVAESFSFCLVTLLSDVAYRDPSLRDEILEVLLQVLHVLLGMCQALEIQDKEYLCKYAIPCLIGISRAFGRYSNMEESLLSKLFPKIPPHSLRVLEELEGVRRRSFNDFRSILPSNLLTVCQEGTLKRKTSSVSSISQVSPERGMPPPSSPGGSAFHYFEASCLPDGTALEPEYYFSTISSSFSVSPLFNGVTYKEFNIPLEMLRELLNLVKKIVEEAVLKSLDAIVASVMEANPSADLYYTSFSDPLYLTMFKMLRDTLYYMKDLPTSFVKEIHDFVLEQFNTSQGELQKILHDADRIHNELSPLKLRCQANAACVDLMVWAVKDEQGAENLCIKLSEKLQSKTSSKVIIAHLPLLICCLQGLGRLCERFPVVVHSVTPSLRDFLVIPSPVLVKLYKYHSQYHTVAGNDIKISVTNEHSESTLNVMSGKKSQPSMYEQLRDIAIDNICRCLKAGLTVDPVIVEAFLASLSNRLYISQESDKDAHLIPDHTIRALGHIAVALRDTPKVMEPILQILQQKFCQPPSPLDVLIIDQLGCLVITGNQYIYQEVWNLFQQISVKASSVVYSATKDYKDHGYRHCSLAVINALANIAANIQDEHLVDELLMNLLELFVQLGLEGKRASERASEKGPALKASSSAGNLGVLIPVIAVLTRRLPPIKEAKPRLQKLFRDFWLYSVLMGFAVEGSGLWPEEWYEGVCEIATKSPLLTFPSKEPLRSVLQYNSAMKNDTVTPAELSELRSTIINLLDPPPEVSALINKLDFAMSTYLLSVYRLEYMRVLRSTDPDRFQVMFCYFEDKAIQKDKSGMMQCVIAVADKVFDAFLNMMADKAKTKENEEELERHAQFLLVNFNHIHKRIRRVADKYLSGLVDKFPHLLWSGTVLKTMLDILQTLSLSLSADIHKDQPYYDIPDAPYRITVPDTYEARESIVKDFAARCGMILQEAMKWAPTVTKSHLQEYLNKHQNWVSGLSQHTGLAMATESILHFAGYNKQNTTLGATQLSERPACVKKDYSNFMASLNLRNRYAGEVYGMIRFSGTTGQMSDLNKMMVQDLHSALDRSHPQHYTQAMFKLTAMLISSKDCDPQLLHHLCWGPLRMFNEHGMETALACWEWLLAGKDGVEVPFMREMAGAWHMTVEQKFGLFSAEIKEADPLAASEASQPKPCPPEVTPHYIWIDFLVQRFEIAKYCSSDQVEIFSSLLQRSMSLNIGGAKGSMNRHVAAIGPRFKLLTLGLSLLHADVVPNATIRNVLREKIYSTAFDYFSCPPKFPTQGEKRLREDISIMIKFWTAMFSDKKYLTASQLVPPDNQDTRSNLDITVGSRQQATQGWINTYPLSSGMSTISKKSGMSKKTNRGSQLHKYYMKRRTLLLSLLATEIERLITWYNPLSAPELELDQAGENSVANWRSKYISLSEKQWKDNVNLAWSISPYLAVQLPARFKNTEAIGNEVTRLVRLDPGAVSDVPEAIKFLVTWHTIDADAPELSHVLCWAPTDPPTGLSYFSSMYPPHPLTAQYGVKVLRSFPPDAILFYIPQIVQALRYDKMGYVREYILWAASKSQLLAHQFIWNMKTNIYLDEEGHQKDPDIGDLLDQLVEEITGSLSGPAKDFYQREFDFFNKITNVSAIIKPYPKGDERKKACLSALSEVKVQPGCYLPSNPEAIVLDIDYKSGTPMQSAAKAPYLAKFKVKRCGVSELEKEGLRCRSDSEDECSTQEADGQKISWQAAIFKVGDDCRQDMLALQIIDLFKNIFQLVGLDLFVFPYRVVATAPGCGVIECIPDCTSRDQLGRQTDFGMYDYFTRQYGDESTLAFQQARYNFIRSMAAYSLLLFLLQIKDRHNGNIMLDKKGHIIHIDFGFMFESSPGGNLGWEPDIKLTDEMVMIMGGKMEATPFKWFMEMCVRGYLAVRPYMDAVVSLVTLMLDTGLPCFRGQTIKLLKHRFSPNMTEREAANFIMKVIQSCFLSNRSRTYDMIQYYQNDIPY

[25] = target: BDNF/NT-3 growth factors receptor (Homo sapiens) (UniProt Q16620); assay: Selectivity interaction (KinomeScan (DiscoverX)) EUB0000655a NTRK2; conditions: at 10 µM

Structure (SMILES): C=CC(=O)Nc1ccc(C(=O)Nc2[nH]nc3c2CN(C(=O)N[C@H](CN(C)C)c2ccccc2)C3(C)C)cc1
- % of engagement [1]: 34.1%

Structure (SMILES): C=CC(=O)Nc1cc(-n2c(=O)ccc3cnc4ccc(-c5ccc(NS(C)(=O)=O)cc5)cc4c32)ccc1C
- % of control ([2]; at 1 µM): 85%
- % of control ([2]; at 10 µM): 100%
- % of control ([3]; at 1 µM): 88%
- % of control ([3]; at 10 µM): 96%
- % of control ([4]; at 1 µM): 11%
- % of control ([4]; at 10 µM): 74%
- % of control ([5]; at 1 µM): 79%
- % of control ([5]; at 10 µM): 100%

Structure (SMILES): Cn1cc(-n2cnc3c(NCc4nc5cc(Cl)c(Cl)cc5[nH]4)nc(N4CCOCC4)nc32)cn1
- % of inhibition [6]: -28%
- % of control [7]: 1.04%

Structure (SMILES): O=C(NOC[C@H](O)CO)c1ccc(F)c(F)c1Nc1ccc(I)cc1F
- % of control [8]: 87%
- % of control [9]: 74%
- % of control [10]: 91%
- % of control [11]: 75%
- % of control [12]: 90%
- % of control [13]: 92%
- % of control [14]: 100%

Structure (SMILES): Cc1cc([C@@H](C)Nc2ccccc2C(=O)O)c2nc(N3CCOCC3)cc(=O)n2c1 [AZD-6482]
- % of control [15]: 99%

Structure (SMILES): Cc1cnc(Nc2ccc(F)cc2Cl)nc1-c1c[nH]c(C(=O)N[C@H](CO)c2cccc(Cl)c2)c1
- % of inhibition [16]: 10%

Structure (SMILES): COc1cc(Nc2nc(C)cc(-c3cnn4nc(OC)ccc34)n2)cc(C(F)(F)F)c1
- % of control [17]: 61%

Structure (SMILES): N#Cc1cccc(-c2c[nH]c3ncnc(N4CCOCC4)c23)c1
- % of control [18]: 100%
- % of control [19]: 95%

Structure (SMILES): CC(C)(O)[C@H](F)CN1Cc2cc(NC(=O)c3cnn4cccnc34)c(N3CCOCC3)cc2C1=O
- dTM [20]: 8.7 K

Structure (SMILES): O[C@H]1CC[C@H](Nc2ncc3nc(Nc4c(F)cc(F)cc4F)n([C@H]4CCOC4)c3n2)CC1
- % of control [21]: 52%

Structure (SMILES): CC[C@@H]1[C@H](F)C(=O)N[C@@H]1COc1nccc2cc(C(N)=O)c(OC)cc12 [ZIMLOVISERTIB]
- % of inhibition ([22]; at 0.01 µM): 25.6%
- % of inhibition ([22]; at 0.04 µM): -1.5%
- % of inhibition ([22]; at 0.2 µM): 3.2%
- % of inhibition ([22]; at 1 µM): -5.7%
- % of inhibition ([22]; at 5 µM): 35.6%
- % of inhibition [23]: 7.3%
- % of inhibition ([24]; at 0.01 µM): 7.2%
- % of inhibition ([24]; at 0.04 µM): -7.1%
- % of inhibition ([24]; at 0.2 µM): -24.4%
- % of inhibition ([24]; at 1 µM): -6%
- % of inhibition ([24]; at 5 µM): 38.5%

Structure (SMILES): CN(C)CCOc1ccc(-c2nc(-c3ccncc3)c(-c3ccc4c(c3)CC/C4=N\O)[nH]2)cc1
- % of control [25]: 75%
